Source: patent publication US20160038468A1 (priority 2013, published 2016)
Converted amounts (≈) assume the structure as drawn. Where two headings read alike, the source gives them in different places.

What was measured:
Type in all cases: cell-based
[1] = tested on: Megasphaera-like bacteria; assay: Agar dilution MIC (CLSI), Megasphaera-like bacteria vaginal isolates; conditions: read-out: Minimal Inhibitory Concentration (MIC)
Prevotella bivia = assay: Agar dilution MIC (CLSI), Prevotella bivia vaginal isolates; conditions: for Number of strains with indicated MIC: 34 samples; for MIC: read-out: Minimal Inhibitory Concentration (MIC)
Finegoldia magna = assay: Agar dilution MIC (CLSI), Finegoldia magna vaginal isolates; conditions: for MIC: read-out: Minimal Inhibitory Concentration (MIC); for Number of strains with indicated MIC: 20 samples
Mobiluncus spp = assay: Agar dilution MIC (CLSI), Mobiluncus spp vaginal isolate; conditions: read-out: Minimal Inhibitory Concentration (MIC)

CCC[C@@H]1C[C@@H](C(=O)N[C@@H]([C@H]2O[C@H](SC)[C@H](O)[C@@H](O)[C@H]2O)[C@H](C)Cl)N(C)C1 [Clindamycin]
MIC ([1]; isolate 427509 A): 0.125 µg/mL (≈ 0.294 µM) | MIC ([1]; isolate 427522 8): 0.03 µg/mL (≈ 0.0706 µM) | MIC ([1]; isolate 600770 O): 0.03 µg/mL (≈ 0.0706 µM) | MIC ([1]; isolate 600790 N): 0.03 µg/mL (≈ 0.0706 µM) | MIC ([1]; isolate 600796 V): 0.03 µg/mL (≈ 0.0706 µM) | MIC ([1]; isolate 600831 9): 0.03 µg/mL (≈ 0.0706 µM) | MIC ([1]; isolate 600837 18): 0.03 µg/mL (≈ 0.0706 µM) | MIC ([1]; isolate 600861 P): 0.03 µg/mL (≈ 0.0706 µM) | MIC ([1]; isolate 602236 E3): 0.03 µg/mL (≈ 0.0706 µM) | MIC ([1]; isolate 602241 D): 0.03 µg/mL (≈ 0.0706 µM) | MIC ([1]; isolate 602241 F): 0.03 µg/mL (≈ 0.0706 µM) | MIC ([1]; isolate 602270 A): 0.03 µg/mL (≈ 0.0706 µM) | MIC ([1]; isolate 602282 I): 0.03 µg/mL (≈ 0.0706 µM) | MIC ([1]; isolate 602288 16): 0.03 µg/mL (≈ 0.0706 µM) | MIC ([1]; isolate 602302 22): 0.03 µg/mL (≈ 0.0706 µM) | MIC ([1]; isolate 602305 I): 0.03 µg/mL (≈ 0.0706 µM) | MIC ([1]; isolate 602324 8): 0.03 µg/mL (≈ 0.0706 µM) | MIC ([1]; isolate 602672 12A): 0.03 µg/mL (≈ 0.0706 µM) | Number of strains with indicated MIC (Prevotella bivia; MIC 0.03 μg/ml): 8 | Number of strains with indicated MIC (Prevotella bivia; MIC 0.06 μg/ml): 1 | Number of strains with indicated MIC (Prevotella bivia; MIC >[…]): 25 | MIC (Prevotella bivia; Prevotella bivia, isolate 601203 5): 0.03 µg/mL (≈ 0.0706 µM) | MIC (Prevotella bivia; Prevotella bivia, isolate 601212 9): 0.03 µg/mL (≈ 0.0706 µM) | MIC (Prevotella bivia; Prevotella bivia, isolate 601293 22): 0.03 µg/mL (≈ 0.0706 µM) | MIC (Prevotella bivia; Prevotella bivia, isolate 601355 B): 0.06 µg/mL (≈ 0.141 µM) | MIC (Prevotella bivia; Prevotella bivia, isolate 601367 M): 0.03 µg/mL (≈ 0.0706 µM) | MIC (Prevotella bivia; Prevotella bivia, isolate 601388 T): 0.03 µg/mL (≈ 0.0706 µM) | MIC (Prevotella bivia; Prevotella bivia, isolate 601389 J): 0.03 µg/mL (≈ 0.0706 µM) | MIC (Prevotella bivia; Prevotella bivia, isolate 601409 V): 0.03 µg/mL (≈ 0.0706 µM) | MIC (Prevotella bivia; Prevotella bivia, isolate 601410 12): 0.03 µg/mL (≈ 0.0706 µM) | MIC (Prevotella bivia; Prevotella bivia): > 128 µg/mL | MIC50 (Prevotella bivia; Prevotella bivia, # tested 34): > 128 µg/mL | MIC90 (Prevotella bivia; Prevotella bivia, # tested 34): > 128 µg/mL | Minimal Inhibitory Concentration (MIC) (Prevotella bivia; isolate 601096 25): >128 µg/mL | Minimal Inhibitory Concentration (MIC) (Prevotella bivia; isolate 601166 M): >128 µg/mL | Minimal Inhibitory Concentration (MIC) (Prevotella bivia; isolate 601202 21): >128 µg/mL | Minimal Inhibitory Concentration (MIC) (Prevotella bivia; isolate 601213 9A): >128 µg/mL | Minimal Inhibitory Concentration (MIC) (Prevotella bivia; isolate 601214 B): >128 µg/mL | Minimal Inhibitory Concentration (MIC) (Prevotella bivia; isolate 601241 13): >128 µg/mL | Minimal Inhibitory Concentration (MIC) (Prevotella bivia; isolate 601243 15): >128 µg/mL | Minimal Inhibitory Concentration (MIC) (Prevotella bivia; isolate 601255 10): >128 µg/mL | Minimal Inhibitory Concentration (MIC) (Prevotella bivia; isolate 601261 C): >128 µg/mL | Minimal Inhibitory Concentration (MIC) (Prevotella bivia; isolate 601283 20): >128 µg/mL | Minimal Inhibitory Concentration (MIC) (Prevotella bivia; isolate 601285 14): >128 µg/mL | Minimal Inhibitory Concentration (MIC) (Prevotella bivia; isolate 601305 H): >128 µg/mL | Minimal Inhibitory Concentration (MIC) (Prevotella bivia; isolate 601340 31): >128 µg/mL | Minimal Inhibitory Concentration (MIC) (Prevotella bivia; isolate 601374 A1): >128 µg/mL | Minimal Inhibitory Concentration (MIC) (Prevotella bivia; isolate 601378 B): >128 µg/mL | Minimal Inhibitory Concentration (MIC) (Prevotella bivia; isolate 601379 19): >128 µg/mL | Minimal Inhibitory Concentration (MIC) (Prevotella bivia; isolate 601389 10): >128 µg/mL | Minimal Inhibitory Concentration (MIC) (Prevotella bivia; isolate 601392 14): >128 µg/mL | Minimal Inhibitory Concentration (MIC) (Prevotella bivia; isolate 601429 1): >128 µg/mL | Minimal Inhibitory Concentration (MIC) (Prevotella bivia; isolate 601433 19): >128 µg/mL | Minimal Inhibitory Concentration (MIC) (Prevotella bivia; isolate 601449 E): >128 µg/mL | Minimal Inhibitory Concentration (MIC) (Prevotella bivia; isolate 601453 A): >128 µg/mL | Minimal Inhibitory Concentration (MIC) (Prevotella bivia; isolate 601455 D1): >128 µg/mL | Minimal Inhibitory Concentration (MIC) (Prevotella bivia; isolate 601458 16): >128 µg/mL | Susceptible (Prevotella bivia; number (%) of isolates, # tested 34): 9 (26) μg/ml | Resistant (Prevotella bivia; number (%) of isolates, # tested 34, resistance: rifaximin >32, metronidazole >32, clindamycin >8 μg/ml): 25 (74) μg/ml | MIC (Finegoldia magna; Finegoldia magna, isolate 301303V D): 8 µg/mL (≈ 18.8 µM) | MIC (Finegoldia magna; Finegoldia magna, isolate 601205V 39): 8 µg/mL (≈ 18.8 µM) | MIC (Finegoldia magna; Finegoldia magna, isolate 601275V c): 128 µg/mL (≈ 301 µM) | MIC (Finegoldia magna; Finegoldia magna, isolate 601276V 23): 0.5 µg/mL (≈ 1.18 µM) | MIC (Finegoldia magna; Finegoldia magna, isolate 601283V 14): 4 µg/mL (≈ 9.41 µM) | MIC (Finegoldia magna; Finegoldia magna, isolate 601295V 25): 0.25 µg/mL (≈ 0.588 µM) | MIC (Finegoldia magna; Finegoldia magna, isolate 601298V 30): 128 µg/mL (≈ 301 µM) | MIC (Finegoldia magna; Finegoldia magna, isolate 601308V 24): 0.25 µg/mL (≈ 0.588 µM) | MIC (Finegoldia magna; Finegoldia magna, isolate 601315V 17): 4 µg/mL (≈ 9.41 µM) | MIC (Finegoldia magna; Finegoldia magna, isolate 601315V 17A): 4 µg/mL (≈ 9.41 µM) | MIC (Finegoldia magna; Finegoldia magna, isolate 601320V 24): 0.5 µg/mL (≈ 1.18 µM) | MIC (Finegoldia magna; Finegoldia magna, isolate 601323V K): 0.25 µg/mL (≈ 0.588 µM) | MIC (Finegoldia magna; Finegoldia magna, isolate 601330V c): 0.25 µg/mL (≈ 0.588 µM) | MIC (Finegoldia magna; Finegoldia magna, isolate 601335V c1): 0.5 µg/mL (≈ 1.18 µM) | MIC (Finegoldia magna; Finegoldia magna, isolate 601340V 27): 0.25 µg/mL (≈ 0.588 µM) | MIC (Finegoldia magna; Finegoldia magna, isolate 601359V c): 0.25 µg/mL (≈ 0.588 µM) | MIC (Finegoldia magna; Finegoldia magna, isolate 601363V 6): 0.03 µg/mL (≈ 0.0706 µM) | MIC (Finegoldia magna; Finegoldia magna, isolate 601367V c): 0.5 µg/mL (≈ 1.18 µM) | MIC (Finegoldia magna; Finegoldia magna): > 128 µg/mL | MIC50 (Finegoldia magna; Finegoldia magna, # tested 20): 0.5 µg/mL (≈ 1.18 µM) | MIC90 (Finegoldia magna; Finegoldia magna, # tested 20): 128 µg/mL (≈ 301 µM) | Number of strains with indicated MIC (Finegoldia magna; MIC 0.03 μg/ml): 1 | Number of strains with indicated MIC (Finegoldia magna; MIC 8 μg/ml): 2 | Number of strains with indicated MIC (Finegoldia magna; MIC >[…]): 2 | Minimal Inhibitory Concentration (MIC) (Finegoldia magna; isolate 601214V F): >128 µg/mL | MIC (Mobiluncus spp): 4 µg/mL (≈ 9.41 µM)
